Experimental data published in article PMC7979765, “trans-Translation inhibitors bind to a novel site on the ribosome and clear Neisseria gonorrhoeae in vivo” (Nature Communications, 2021).
≈ marks a conversion by molar mass, not a printed value. Where “and” joins values, the source holds several entries; their conditions need not be identical. Identical values can stand only once. Like-named read-outs stand apart in the source and are kept apart here.

Assays:
[1] = tested on: Acinetobacter baumannii; assay: MIC, microbroth dilution; assay type: cell-based
[2] = tested on: Staphylococcus aureus; assay: MIC, microbroth dilution; assay type: cell-based
[3] = tested on: Klebsiella pneumoniae; assay: MIC, microbroth dilution; assay type: cell-based
[4] = Mammalian cell cytotoxicity (CC50); assay type: cell-based, human; conditions: human, HeLa cells (ATCC CCL-2)
Method: (§1) The half maximal cytotoxic concentration (CC50) of each compound against HeLa cells (ATCC CCL-2) was measured as previously described. […] The mean values for each biological replicate were averaged, and the CC50 was determined using a 4-parameter nonlinear curve fitting algorithm (GraphPad Prism). The average of the CC50s from two biological replicates was calculated and reported.

[5] = tested on: HeLa cells; assay: Mammalian cell cytotoxicity (CC50); assay type: cell-based, human; conditions: listed as MBX-3535; for NORMALIZED DATA (Fraction DMSO Control): HeLa, replicates
Method: as §1

[6] = HeLa cytotoxicity, one value per replicate

SMILES: O=C(Nc1nnc(-c2ccc(F)cc2)o1)c1ccc(Cl)cc1 [KKL-35, 4-chloro-N-(5-(4-fluorophenyl)-1,3,4-oxadiazol-2-yl)benzamide]
- MIC ([1]; Acinetobacter baumannii ATCC 19606, replicates): ≥32 µg/mL
- MIC ([1]; Acinetobacter baumannii, ATCC19606, Acinetobacter baumannii ATCC 19606, replicates, read-out: MIC): ≥ 32 µg/mL
- MIC ([1]; Acinetobacter baumannii, ATCC19606, strain ATCC 19606, read-out: MIC): > 32 µg/mL
- MIC ([2]; Staphylococcus aureus ATCC 25923, replicates): 1 µg/mL (≈ 3.15 µM)
- MIC ([2]; Staphylococcus aureus ATCC 35556, replicates): 1 µg/mL (≈ 3.15 µM)
- MIC ([2]; Staphylococcus aureus BAA-1717, replicates): 1 µg/mL (≈ 3.15 µM)
- MIC ([2]; Staphylococcus aureus MRSA-1094, replicates): 1 µg/mL (≈ 3.15 µM)
- MIC ([2]; Staphylococcus aureus MRSA-1234547263, replicates): 1 µg/mL (≈ 3.15 µM)
- MIC ([2]; Staphylococcus aureus MSSA, replicates): 1 µg/mL (≈ 3.15 µM)
- MIC ([2]; Staphylococcus aureus N315, NRS-70, replicates): 1 µg/mL (≈ 3.15 µM)
- MIC ([2]; Staphylococcus aureus NRS-77, replicates): 1 µg/mL (≈ 3.15 µM)
- MIC ([2]; Staphylococcus aureus THC1516, replicates): 1 µg/ml (4×) and 0.5 µg/ml
- MIC ([2]; Staphylococcus aureus, ATCC25923, Staphylococcus aureus ATCC 25923, replicates, read-out: MIC): 1 µg/mL (≈ 3.15 µM)
- MIC ([2]; Staphylococcus aureus, ATCC25923, strain ATCC 25923, read-out: MIC): 1 µg/mL (≈ 3.15 µM)
- MIC ([2]; Staphylococcus aureus, ATCC35556, Staphylococcus aureus ATCC 35556, replicates, read-out: MIC): 1 µg/mL (≈ 3.15 µM)
- MIC ([2]; Staphylococcus aureus, ATCC35556, strain ATCC 35556, read-out: MIC): 1 µg/mL (≈ 3.15 µM)
- MIC ([2]; Staphylococcus aureus, BAA1717, Staphylococcus aureus BAA-1717, replicates, read-out: MIC): 1 µg/mL (≈ 3.15 µM)
- MIC ([2]; Staphylococcus aureus, BAA-1717 / MRSA, strain BAA-1717, MRSA, read-out: MIC): 1 µg/mL (≈ 3.15 µM)
- MIC ([2]; Staphylococcus aureus, MRSA / NRS 70, strain N315, NRS-70, MRSA, read-out: MIC): 1 µg/mL (≈ 3.15 µM)
- MIC ([2]; Staphylococcus aureus, MRSA, Staphylococcus aureus MRSA-1094, replicates, read-out: MIC): 1 µg/mL (≈ 3.15 µM)
- MIC ([2]; Staphylococcus aureus, MRSA, Staphylococcus aureus MRSA-1234547263, replicates, read-out: MIC): 1 µg/mL (≈ 3.15 µM)
- MIC ([2]; Staphylococcus aureus, MRSA, strain MRSA-1094, MRSA, read-out: MIC): 1 µg/mL (≈ 3.15 µM)
- MIC ([2]; Staphylococcus aureus, MRSA, strain MRSA-1234547263, MRSA, read-out: MIC): 1 µg/mL (≈ 3.15 µM)
- MIC ([2]; Staphylococcus aureus, MRSA, strain THC1516, MRSA, read-out: MIC): 0.9 µg/mL (≈ 2.83 µM)
- MIC ([2]; Staphylococcus aureus, MSSA, Staphylococcus aureus MSSA, replicates, read-out: MIC): 1 µg/mL (≈ 3.15 µM)
- MIC ([2]; Staphylococcus aureus, MSSA, strain MSSA, read-out: MIC): 1 µg/mL (≈ 3.15 µM)
- MIC ([2]; Staphylococcus aureus, NRS70, Staphylococcus aureus N315, NRS-70, replicates, read-out: MIC): 1 µg/mL (≈ 3.15 µM)
- MIC ([2]; Staphylococcus aureus, NRS77, Staphylococcus aureus NRS-77, replicates, read-out: MIC): 1 µg/mL (≈ 3.15 µM)
- MIC ([2]; Staphylococcus aureus, NRS77, strain NRS-77, read-out: MIC): 1 µg/mL (≈ 3.15 µM)
- MIC ([2]; Staphylococcus aureus, Staphylococcus aureus THC1516, replicates, read-out: MIC): 1 µg/mL (≈ 3.15 µM)
- MIC ([3]; Klebsiella pneumoniae ATCC 13883, replicates): ≥32 µg/mL
- MIC ([3]; Klebsiella pneumoniae, ATCC13883, strain ATCC 13883, read-out: MIC): ≥ 32 µg/mL
- CC50 [4, 6]: 30.5 µM
- CC50 ([4]; half-maximal cytotoxic concentration against HeLa cells): > 100 µM
- CC50 [5, 6]: 30.6 µM and 26 µM and 22 µM and 29.1 µM and 34.1 µM
- NORMALIZED DATA (Fraction DMSO Control) ([5]; [CMPD] 0.78125 µM): 0.9983 Fraction DMSO Control and 0.9009 Fraction DMSO Control and 0.8841 Fraction DMSO Control and 1.049 Fraction DMSO Control and 0.992 Fraction DMSO Control and 0.9968 Fraction DMSO Control
- NORMALIZED DATA (Fraction DMSO Control) ([5]; [CMPD] 1.5625 µM): 0.9916 Fraction DMSO Control and 0.9029 Fraction DMSO Control and 0.888 Fraction DMSO Control and 1.05 Fraction DMSO Control and 0.9984 Fraction DMSO Control and 0.9932 Fraction DMSO Control
- NORMALIZED DATA (Fraction DMSO Control) ([5]; [CMPD] 3.125 µM): 0.9963 Fraction DMSO Control and 0.9267 Fraction DMSO Control and 0.8661 Fraction DMSO Control and 1.071 Fraction DMSO Control and 1.023 Fraction DMSO Control and 1.002 Fraction DMSO Control
- NORMALIZED DATA (Fraction DMSO Control) ([5]; [CMPD] 6.25 µM): 1.002 Fraction DMSO Control and 0.9334 Fraction DMSO Control and 0.856 Fraction DMSO Control and 1.09 Fraction DMSO Control and 1.008 Fraction DMSO Control and 1.022 Fraction DMSO Control
- NORMALIZED DATA (Fraction DMSO Control) ([5]; [CMPD] 12.5 µM): 0.9694 Fraction DMSO Control and 0.9248 Fraction DMSO Control and 0.8736 Fraction DMSO Control and 1.069 Fraction DMSO Control and 1.012 Fraction DMSO Control and 1.014 Fraction DMSO Control
- NORMALIZED DATA (Fraction DMSO Control) ([5]; [CMPD] 25 µM): 0.8994 Fraction DMSO Control and 0.8509 Fraction DMSO Control and 0.795 Fraction DMSO Control and 0.4926 Fraction DMSO Control and 0.6416 Fraction DMSO Control and 0.799 Fraction DMSO Control
- NORMALIZED DATA (Fraction DMSO Control) ([5]; [CMPD] 50 µM): 0.6292 Fraction DMSO Control and 0.6178 Fraction DMSO Control and 0.5987 Fraction DMSO Control and 0.3592 Fraction DMSO Control and 0.3855 Fraction DMSO Control and 0.3659 Fraction DMSO Control
- NORMALIZED DATA (Fraction DMSO Control) ([5]; [CMPD] 100 µM): 0.6116 Fraction DMSO Control and 0.6041 Fraction DMSO Control and 0.6139 Fraction DMSO Control and 0.191 Fraction DMSO Control and 0.1882 Fraction DMSO Control and 0.2089 Fraction DMSO Control
